These results are taken from ChEMBL document CHEMBL1201862, “PubChem BioAssay data set” (2004).

Some test systems named below: RPMI-8226; NCI-H522; NCI-H23; HT-29; LOX IMVI; SK-MEL-28; HOP-62; T47D; SF-268; TK-10; A549; IGROV-1; BT-549; M14; HOP-92; SK-MEL-5; KM-20L2; ACHN; MCF7; HL-60.
Holding throughout (experiment): DTP human tumour cell line panel, 48 h

SMILES strings stand for the structures.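 Each compound was tested at five concentrations against cells in 96-well plates for 48 hours. The concentration for 50% growth inhibition is given as GI50.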 Calls of active or inactive are those of the source. Cut-off read from the data, not from the text of the source: active = GI50 up to about 1.1 µM and inactive = higher. Where only a bound is given, the exact number is not on record here.

What is called GI50 is the concentration at which growth is held to half of that of the control. As to `C=C1C(=O)OC2/C=C(\CO)C3OC3C3OC3(C)CC(OC(=O)/C(=C/C)COC(C)=O)C12` (configuration not stated), the GI50 in the test on RPMI-8226 was > 100000 nM (inactive); in the test with NCI-H522 it was 313 nM (active); in the test on NCI-H23, 6930 nM (inactive); in the test on HT-29, 3890 nM (inactive); with LOX IMVI, 1510 nM (inactive); in the test on SK-MEL-28, 1820 nM (inactive). Besides, the GI50 was 21600 nM (inactive) with HOP-62; 3010 nM (inactive) in the test on T47D; 11200 nM (inactive) with SF-268; 2940 nM (inactive) in the test with TK-10; 18600 nM (inactive) in the test with A549; 13200 nM (inactive) with IGROV-1. Besides, the GI50 in the test on BT-549 was 1770 nM (inactive); with M14, 2750 nM (inactive); in the test on HOP-92, 2010 nM (inactive); in the test with SK-MEL-5 it was 8130 nM (inactive); in the test on KM-20L2 it was 6170 nM (inactive); in the test with ACHN it was 3400 nM (inactive). Moreover, the GI50 in the test on MCF7 is 3940 nM (inactive); in the test on HL-60, 1390 nM (inactive).
In the case of `COc1cccc2c1C(=O)c1c(O)c3c(c(O)c1C2=O)C[C@@](O)(C(C)O)C[C@@H]3OC1CC(N)C(O)C(C)O1` (some centres not stated), the GI50 in the test with NCI-H522 is 570 nM (active); in the test with NCI-H23 it was 553 nM (active); with HT-29, 2210 nM (inactive); with LOX IMVI, 524 nM (active); with SK-MEL-28 it was 1420 nM (inactive); in the test on HOP-62 it was 861 nM (active). Further, the GI50 in the test on SF-268 is 1050 nM (active); in the test with TK-10, 2500 nM (inactive); in the test on A549, 946 nM (active); in the test on IGROV-1 it was 2200 nM (inactive); in the test on M14 it was 3020 nM (inactive); in the test with HOP-92, 502 nM (active). The GI50 with SK-MEL-5 was 834 nM (active); with KM-20L2, 3240 nM (inactive); in the test on ACHN, 1510 nM (inactive); in the test with MCF7, 738 nM (active); with HL-60 it was 171 nM (active).
